{
  "source": "patent US11186534B2",
  "about": "“Derivatives of sulindac can protect normal cells against oxidative damage” (University of South Alabama, priority 2017, dated 2021)",
  "key": {"[1]": {"target": "PDE10 (Homo sapiens, UniProt Q9Y233)", "sequence (Q9Y233 whole entry)": "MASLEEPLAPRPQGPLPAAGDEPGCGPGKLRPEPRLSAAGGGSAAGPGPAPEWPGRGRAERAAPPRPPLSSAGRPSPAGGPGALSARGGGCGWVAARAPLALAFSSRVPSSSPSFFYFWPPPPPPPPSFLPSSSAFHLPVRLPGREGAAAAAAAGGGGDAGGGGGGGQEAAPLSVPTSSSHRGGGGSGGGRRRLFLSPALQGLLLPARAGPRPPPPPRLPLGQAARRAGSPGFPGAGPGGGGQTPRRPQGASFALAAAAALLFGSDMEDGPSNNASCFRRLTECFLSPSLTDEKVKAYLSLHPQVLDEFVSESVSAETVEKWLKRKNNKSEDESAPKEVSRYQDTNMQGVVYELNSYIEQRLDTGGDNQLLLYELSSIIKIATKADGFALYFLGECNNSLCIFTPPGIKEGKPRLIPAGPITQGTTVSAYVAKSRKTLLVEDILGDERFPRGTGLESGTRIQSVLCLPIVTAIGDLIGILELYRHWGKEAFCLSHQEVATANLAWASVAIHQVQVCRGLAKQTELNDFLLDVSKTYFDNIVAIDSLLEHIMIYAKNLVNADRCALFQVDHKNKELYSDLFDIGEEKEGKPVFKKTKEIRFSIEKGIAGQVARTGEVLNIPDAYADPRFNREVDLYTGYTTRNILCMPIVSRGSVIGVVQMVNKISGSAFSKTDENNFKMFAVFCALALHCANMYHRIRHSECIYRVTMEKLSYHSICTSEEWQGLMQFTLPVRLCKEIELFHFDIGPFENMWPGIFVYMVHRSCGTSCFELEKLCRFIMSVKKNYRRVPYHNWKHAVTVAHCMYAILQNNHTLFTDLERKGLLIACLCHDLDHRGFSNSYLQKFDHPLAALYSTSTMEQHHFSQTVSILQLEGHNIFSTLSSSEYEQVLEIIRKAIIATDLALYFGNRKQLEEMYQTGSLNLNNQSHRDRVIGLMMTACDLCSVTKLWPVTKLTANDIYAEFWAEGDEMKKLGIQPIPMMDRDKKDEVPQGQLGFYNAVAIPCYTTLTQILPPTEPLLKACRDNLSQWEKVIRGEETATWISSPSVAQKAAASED", "experiment": "IMAP fluorescence polarization PDE assay, PDE10", "type": "biochemical", "conditions": "FIG. 5B", "description": "(§1) PDE activity was measured using the IMAP fluorescence polarization PDE assay (Molecular Devices) in which the binding of hydrolyzed fluorescent cyclic nucleotide substrate to the IMAP reagent increases fluorescence polarization. Each well of a 96-well nonbinding plate contained 0.25 mg/mL of recombinant enzyme preparations. Enzymes were incubated with COMPOUND 9 or vehicle (DMSO) for 30 min at 30° C. before the addition of a substrate mixture containing 25 nmol/L of fluorescein-cGMP. The DMSO final concentration for each experiment was 2%. After 90 min of incubation at 30° C., the reaction was terminated by the addition of binding reagent. The maximum Fluorescence polarization was measured using a Synergy4 (BioTek) plate reader."}, "[2]": {"system": "rat intact hearts (Langendorff model)", "experiment": "Langendorff model of ischemia/reperfusion injury, LDH release", "type": "in vivo, Sprague Dawley rats", "description": "(§2) The ex vivo Langendorff procedure is a well-established preparation used to investigate heart physiology, ischemia/reperfusion injury, and other cardiovascular insults (23, 24; also see, e.g., reference 22). Sprague Dawley rats (275-325g) were administered either no drug or Compound 9 daily (at 0.7 mg/kg) for a total of two days (two administrations in total). Forty-eight hours after the start of drug exposure, hearts were removed and exposed to 45 min no flow ischemia and 2 h reperfusion in the Langendorff model (hearts were first equilibrated in KHB buffer for 10 min and then subjected to 45 min ischemia followed by 2 h reperfusion with KHB buffer), in the absence of drug.\nIn LDH and TTC assays for the Langendorff Preparation, coronary effluent samples (500 μL) from the Langendorff preparation were obtained upon attachment of excised heart, every 15 min before ischemia, immediately after 45 min ischemia, and at 15 min intervals during reperfusion. LDH was measured (using a Cytotox-96 nonradioactive cytotoxicity assay kit (Promega), with the absorbance read at 490 nm). Immediately upon completion, the heart was sliced into 2-mm cross-sectional pieces and slices were incubated for 30 min with 1% 2,3,5-triphenyl tetrazolium chloride (TTC) stain in Krebs-Henseleit buffer (KHB) (pH=7.4) at 37° C. to distinguish between viable (red) and nonviable (white) tissue. Tissue slices were stored overnight in 10% formaldehyde before measurement of infarct size using NIH-Image J software.\nThe protective (preconditioning) effect of Compound 9 was evaluated in an art-recognized Langendorff model of ischemia/reperfusion injury. Compound 9 was administered via i.p. injection to test animals daily for two days, and animal hearts were then removed for performance of the Langendorff procedure (described above and known in the art)."}, "[3]": {"system": "rat intact hearts (Langendorff model)", "experiment": "Langendorff model of ischemia/reperfusion injury, infarct size by TTC staining", "type": "in vivo, Sprague Dawley rats", "conditions": "45 min ischemia and 2 h reperfusion; 0.7 mg/kg daily for 48 h; FIG. 8", "description": "as §2\nIn LDH and TTC assays for the Langendorff Preparation, coronary effluent samples (500 μL) from the Langendorff preparation were obtained upon attachment of excised heart, every 15 min before ischemia, immediately after 45 min ischemia, and at 15 min intervals during reperfusion. LDH was measured (using a Cytotox-96 nonradioactive cytotoxicity assay kit (Promega), with the absorbance read at 490 nm). […]\nThe protective (preconditioning) effect of Compound 9 was evaluated in an art-recognized Langendorff model of ischemia/reperfusion injury. […]"}, "[4]": {"target": "T1, ovine COX-1 (Ovis aries, UniProt P05979)", "T1 construct": "purchased Cayman Chemical 700100", "T1 sequence (P05979 25-600)": "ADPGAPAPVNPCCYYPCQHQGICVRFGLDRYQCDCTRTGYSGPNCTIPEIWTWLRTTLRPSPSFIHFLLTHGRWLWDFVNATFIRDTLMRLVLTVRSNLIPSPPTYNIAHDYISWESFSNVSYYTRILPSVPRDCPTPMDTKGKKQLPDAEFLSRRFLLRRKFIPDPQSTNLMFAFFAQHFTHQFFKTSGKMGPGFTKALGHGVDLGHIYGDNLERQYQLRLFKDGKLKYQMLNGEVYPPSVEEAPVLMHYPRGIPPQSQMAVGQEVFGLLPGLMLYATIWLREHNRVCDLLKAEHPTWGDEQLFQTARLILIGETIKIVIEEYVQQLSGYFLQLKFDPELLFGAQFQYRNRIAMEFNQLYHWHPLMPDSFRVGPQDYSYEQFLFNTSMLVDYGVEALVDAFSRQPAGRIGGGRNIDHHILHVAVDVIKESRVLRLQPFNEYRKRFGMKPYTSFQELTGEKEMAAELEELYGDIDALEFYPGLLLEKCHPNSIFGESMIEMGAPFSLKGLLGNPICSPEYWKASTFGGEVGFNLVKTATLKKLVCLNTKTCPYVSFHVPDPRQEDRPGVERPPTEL", "experiment": "COX Fluorescent Inhibitor Screening assay, COX-1", "type": "biochemical", "conditions": "FIG. 4A", "description": "Compounds were assayed for cyclooxygenase (COX) inhibition using the COX Fluorescent Inhibitor Screening Kit from Cayman Chemical (Item #: 700100). Briefly, COX enzyme (ovine COX-1 or human recombinant COX-2) diluted in 1× reaction buffer is incubated with the compound or DMSO control for 20 min at 25° C. in a half-area 96-well black microplate. Background wells are also included that contained no enzyme. Added to each well were heme B, to ensure enzyme activity, and 10-acetyl-3,7-dihydroxyphenoxazine (ADHP) assay reagent. After the 20 min incubation, arachidonic acid (AA) substrate was added to all wells. As shown by the schematic diagram below, active COX enzyme converts AA to hydroperoxy endoperoxide (PGG2). Catalyzed by the secondary peroxidase activity of COX, ADHP can react with PGG2 to form a highly fluorescent compound, resorufin. Fluorescence was measured with a […] excitation wavelength and a 585-595 nm emission wavelength. Decreased fluorescence relative to the DMSO control indicates COX inhibition. See, also, Piazza G A, Keeton A B, Tinsley H N, Gary B D, Whitt J D, Mathew B, Thaiparambil J, Coward L, Gorman, G, Li Y, Sani B, Hobrath J V, Maxuitenko Y Y and Reynolds R C. […] Cancer Prevention Research 2009; 2: 572-580."}, "[5]": {"target": "PDE5 (Homo sapiens, UniProt O76074)", "experiment": "IMAP fluorescence polarization PDE assay, PDE5", "type": "biochemical", "conditions": "FIG. 5A", "description": "as §1"}, "[6]": {"system": "PDE isozymes 1-11 (except PDE6)", "experiment": "IMAP fluorescence polarization PDE assay, panel of PDE isozymes", "type": "biochemical", "conditions": "25 μM; FIG. 5C", "description": "as §1"}, "[7]": {"conditions": "0.7 mg/kg i.p. daily for 48 h, FIG. 9"}},
  "data": [
    {"smiles": "COc1cc2c(cc1OC)/C(=C\\c1cc(OC)c(OC)c(OC)c1)C(C)=C2CC(=O)O", "note": "[Compound 9, (Z)-2-(5,6-dimethoxy-2-methyl-1-(3,4,5-trimethoxybenzylidene)-1H-inden-3-yl)acetic acid]", "values": [
      {"measurement": "IC50", "setting": "[1]", "value": "~7", "unit": "µM"},
      {"measurement": "Protective effect during the 45 min ischemia phase", "setting": "[2]; [7]", "value": "robust protective effect"},
      {"measurement": "Protective effect during the 2 h reperfusion phase", "setting": "[2]; [7]", "value": "robust protective effect"},
      {"measurement": "LDH levels vs no drug control", "setting": "[2]; 2 h reperfusion, 0.7 mg/kg daily for 48 h, FIG. 7", "value": "decrease in LDH levels"},
      {"measurement": "Levels of LDH released vs no drug", "setting": "[2]; after 45 min no flow ischemia, 0.7 mg/kg daily for 48 h, FIG. 7", "value": "significantly lower"},
      {"measurement": "Infarction size (percent of heart infarcted, TTC staining)", "setting": "[3]", "value": "below 20%"},
      {"measurement": "COX-1 inhibition: fold less potent than sulindac sulfide (SS)", "setting": "[4]", "value": "≥ 20", "unit": "×"},
      {"measurement": "IC50", "setting": "[5]", "value": "~32", "unit": "µM"},
      {"measurement": "Inhibition of other cGMP PDE isozymes, including PDE 1, 2, 3 and 11", "setting": "[6]", "value": "lower inhibitory effects"},
      {"measurement": "PDE isozyme selectivity", "setting": "[6]", "value": "most active against PDE5 and 10"}
    ]}
  ]
}
